One assay relates to IL-6. Briefly: ELISA of IL-6 in LPS-stimulated RAW 264.7 macrophages. The class given is cell-based, mouse. As to conditions: for LPS-induced IL-6 production: preventive: pretreatment 10 μM 6 h, then LPS 12 h. For orientation: In an ELISA, binding on a coated surface is turned into a signal by an enzyme label.
In the next assay the test system is DU145 cells. Nature of the assay: MTT cytotoxicity assay in DU145 cells. It is filed as cell-based, Human. As to conditions: 72 h. Here is the method:
(§1) Human prostate cancer cell lines LNCaP, PC3, and DU145 and RAW 264.7 macrophages were procured from the American type culture collection (ATCC). DU145 cells were grown at 37° C. in 5% CO2 in Eagle's minimum essential medium (EMEM) supplemented with 10% fetal bovine serum (FBS) and 1% penicillin/streptomycin. […] Cells were passed every 3 to 4 days and restarted from frozen stocks upon reaching pass number 20. The cytotoxic behaviors of cisplatin, aspirin, cisplatin+aspirin, and Platin-A were evaluated using the MTT assay against PC3, DU145, LNCaP, and RAW 264.7 cells. […] The cells were treated with different constructs at varying concentrations and incubated for 72 h at 37° C. except for RAW 264.7 macrophages. […] The cells were then treated with 20 μL of MTT (5 mg/mL in PBS) for 5 h. […] Each well was performed in triplicate. […] The IC50 values were reported at +95% confidence intervals.
A general note: Tetrazolium dyes change colour on reduction, which living cells bring about.

A further assay relates to LNCaP cells. Briefly: MTT cytotoxicity assay in LNCaP cells. Particulars: 72 h. The class given is cell-based, Human. Here is the method: as §1
For the next assay, the system named is TNF-α. Nature of the assay: ELISA of TNF-α in LPS-stimulated RAW 264.7 macrophages. It is filed as cell-based, mouse. Particulars: for LPS-induced TNF-α production: preventive: pretreatment 10 μM 6 h, then LPS 12 h.
In assay [1] the test system is PC3 cells. Nature of the assay: MTT cytotoxicity assay in PC3 cells. The class given is cell-based, Human. As to conditions: 72 h. On the procedure: as §1
Assay [2] concerns PC3 cells. Nature of the assay: Apoptosis detection by annexin V/PI assay. It is filed as cell-based, Human. As to conditions: 25 μM, 6 h. From the text:
High expression of COX-2 is found in various cancers, however, for PCa cell lines as well as tissue, contradictory results exist. We therefore tested anti-proliferative properties of Platin-A on androgen-responsive LNCaP and androgenunresponsive PC3 and DU145 PCa cells that differ in their malignant potentials. […] However, in LNCaP cells, Platin-A activity was better than an equimolar mixture of cisplatin and aspirin. In general, Pt(IV) compounds are less cytotoxic compared to their active Pt(II) form. […] To evaluate whether Platin-A-dependent inhibition of cancer cell proliferation is associated with apoptosis, Alexa Fluor® 488 annexin V/propidium iodide (PI) staining assay was carried out in PC3 cells and the data were analyzed by fluorescence assisted cell sorting. […]
PC3 cells were seeded at a density of 1×10^6 cells/mL on each well of a six well plate and allowed to grow overnight. […] Cell density was determined and cells were resuspended in 1× annexinVbinding buffer to 1×10^6 cells/mL preparing a sufficient volume to have 100 μL per assay. […] After the incubation period, 400 μL of 1× annexin-binding buffer was added to each sample, samples were gently mixed keeping the samples on ice, and the samples were analyzed on the flow cytometer immediately.

Setting [3] is: therapeutic: LPS activated macrophages then 10 μM for 12 h.

Protocol for IL-6: (§2) RAW 264.7 cells were plated at a concentration of 10,000 cells/mL in 96 plates and allowed to grow overnight. For preventative anti-inflammatory treatment, Platin-A (10 μM), aspirin (10 μM), cisplatin (10 μM) and an equimolar ratio of cisplatin and aspirin (10 μM each) was incubated with the RAW cells for 6 h. Lipopolysaccharide (LPS) (100 ng/mL) was added and the cells were further incubated for 12 h. For therapeutic anti-inflammatory treatment, LPS (100 ng/mL) was added to the RAW cells and incubated for 6 h. Platin-A (10 μM), aspirin (10 μM), cisplatin (10 μM) and an equimolar ratio of cisplatin and aspirin (10 μM each) was then added to the cells and incubated for 12 h. ELISA was performed on the supernatants against the cytokines interleukin (IL)-6, IL-10, and TNF-α. Briefly, antibody coated plates were blocked with 10% FBS in PBS for 1 h at room temperature followed by 3 washes. RAW cell supernatants were incubated on the plates for 2 h at room temperature. This was immediately followed by washings and sequential incubations with the cytokine-biotin conjugate and streptavidin working solution. Finally, the substrate reagent containing 3,3′,5,5′-tetramethylbenzidine (100 μL) was added to each well, incubated for 15 min, the reaction was stopped by adding 50 μL H2SO4 (0.1 M). The absorbance was recorded at 450 nm using a BioTek Synergy HT well plate reader.
Protocol for TNF-α: as §2

Regarding `N.N.[Cl][Pt][Cl]` [Cisplatin, Cis-diamminedichloroplatinum(II)], in the assay with IL-6, the “LPS-induced IL-6 production” value was “did not show any preventive action”. The “levels of IL-6” value in the assay with IL-6 (setting [3]) is “did not show any effect”. In addition, the IC50 – broadly, the concentration needed to halve the response being measured – amounted to 5 ± 2 µM in the assay on DU145 cells, 15 ± 1 µM with LNCaP cells and 14 ± 4 µM in the assay on PC3 cells [1]. In addition, the “LPS-induced TNF-α production” value in the assay on TNF-α is recorded as “did not show any preventive action”. For the same compound, the “levels of TNF-α” value with TNF-α (setting [3]) is listed as “did not show any effect”.

Turning to `CC(=O)Oc1ccccc1C(=O)O` [Aspirin, Acetylsalicylic acid], in the assay with PC3 cells [2], the “apoptosis induction (annexin V/PI)” value was “did not show any changes in healthy PC3 populations”. Moreover, the “LPS-induced IL-6 production” value with IL-6 was “did not show any preventive action”. Further, in the assay on TNF-α, the “LPS-induced TNF-α production” value was “did not show any preventive action”.

The values are drawn from patent publication US20170190726A9, “PRODRUG FOR RELEASE OF CISPLATIN AND CYCLOOXYGENASE INHIBITOR” (priority 2013, published 2017).
